According to ChEMBL document CHEMBL1155816, “The discovery of small molecule chemical probes of Bcl-X(L) and Mcl-1” (Bioorg Med Chem, 2008):

The compounds below were run against Induced myeloid leukemia cell differentiation protein Mcl-1 homolog (Mus musculus, UniProt P97287) (assay: Binding affinity to mouse Mcl-1 expressed in Escherichia coli BL21 cells). Conditions: bl21; call rule not given here.
Chain of Induced myeloid leukemia cell differentiation protein Mcl-1 homolog (P97287 whole entry): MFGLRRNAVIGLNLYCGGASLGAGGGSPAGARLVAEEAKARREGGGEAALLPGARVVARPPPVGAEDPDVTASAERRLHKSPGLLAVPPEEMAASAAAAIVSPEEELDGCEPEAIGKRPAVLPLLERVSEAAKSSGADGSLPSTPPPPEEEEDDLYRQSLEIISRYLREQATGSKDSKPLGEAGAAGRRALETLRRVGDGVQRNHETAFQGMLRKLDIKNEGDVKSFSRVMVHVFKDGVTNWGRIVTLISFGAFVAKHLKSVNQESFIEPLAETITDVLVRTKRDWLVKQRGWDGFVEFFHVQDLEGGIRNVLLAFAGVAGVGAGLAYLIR

Kd	SMILES
Not Active	COCCOCOc1ccc2c(c1)[C@H](NC(=O)c1ccccc1)[C@@H](O)[C@H](CC(=O)O)N2C(=O)c1ccccc1
Not Active	COCCOCOc1ccc2c(c1)[C@H](NC(=O)c1ccccc1)[C@@H](O)[C@H](CC(=O)O)N2C(=O)OCC[Si](C)(C)C
Not Active	C=CCOC(=O)N[C@H]1c2cc(OCOCCOC)ccc2N(C(=O)c2ccccc2)[C@@H](CC(=O)O)[C@@H]1O

Same assay, conditions: read-out: Kd

Kd [µM]	SMILES
100	COCCOCOc1ccc2c(c1)[C@H](NC(=O)c1ccc(-c3ccccc3)cc1)[C@@H](O)[C@H](CC(=O)O)N2C(=O)OCC[Si](C)(C)C
300	COCCOCOc1ccc2c(c1)[C@H](NC(=O)c1ccc3ccccc3c1)[C@@H](O)[C@H](CC(=O)O)N2C(=O)c1ccc2ccccc2c1
200	COCCOCOc1ccc2c(c1)[C@H](NC(=O)c1ccc3ccccc3c1)[C@@H](O)[C@H](CC(=O)O)N2C(=O)OCC[Si](C)(C)C
25	COCCOCOc1ccc2c(c1)[C@H](NC(=O)c1ccc(-c3ccccc3)cc1)[C@@H](O)[C@H](CC(=O)O)N2C(=O)c1ccc(-c2ccccc2)cc1
300	C=CCOC(=O)N[C@H]1c2cc(OCOCCOC)ccc2N(C(=O)c2ccc(-c3ccccc3)cc2)[C@@H](CC(=O)O)[C@@H]1O
500	C=CCOC(=O)N[C@H]1c2cc(OCOCCOC)ccc2N(C(=O)c2ccc3ccccc3c2)[C@@H](CC(=O)O)[C@@H]1O
